Assay results from ChEMBL document CHEMBL4334475, “Aphidicolin Chemistry of the Deep-Sea-Derived Fungus Botryotinia fuckeliana MCCC 3A00494” (J Nat Prod, 2019).
Activity calls are given as the source filed them. The calls are words filed in the database; no cut-off is given here.

Tests used:
HL-60 [1] = assay: Antiproliferative activity against human HL60 cells assessed as reduction in cell viability after 48 hrs by MTT assay; assay type: functional, cell-based; details: HL-60, 48 h
T-24 [2] = assay: Antiproliferative activity against human T24 cells assessed as reduction in cell viability after 48 hrs by MTT assay; assay type: functional, cell-based; details: T-24, 48 h
HL-60 [3] = assay: Potency index, ratio of aphidicolin IC50 to compound IC50 for antiproliferative activity against human HL60 cells; assay type: functional
HL-60 [4] = assay: Induction of DNA damage in human HL60 cells assessed as increase in gammaH2AX expression at 11 to 22 uM by Western blot analysis; assay type: functional, cell-based
HL-60 [5] = assay: Induction of apoptosis in human HL60 cells assessed as increase in PARP cleavage at 11 to 22 uM by Western blot analysis; assay type: functional, cell-based
T-24 [6] = assay: Induction of apoptosis in human T24 cells assessed as increase in PARP cleavage at 11 to 22 uM by Western blot analysis; assay type: functional, cell-based
T-24 [7] = assay: Induction of DNA damage in human T24 cells assessed as increase in gammaH2AX expression at 11 to 22 uM by Western blot analysis; assay type: functional, cell-based

| Compound | IC50 (HL-60 [1]) [µM] | IC50 (T-24 [2]) [µM] | Ratio IC50 (HL-60 [3]) | Activity (HL-60 [4]) | Activity (HL-60 [5]) | Activity (T-24 [6]) | Activity (T-24 [7]) |
| --- | --- | --- | --- | --- | --- | --- | --- |
| C[C@@]1(CO)[C@H](O)CC[C@@]2(C)[C@H]1CC[C@H]1C[C@@H]3C[C@@]12CC[C@]3(O)CO [APHIDICOLIN] | 24.4 | – | – | – | – | – | – |
| C[C@@]1(CO)[C@H](O)CC[C@@]2(C)[C@H]1C(=O)C[C@H]1C[C@@H]3C[C@@]12CC[C@]3(O)CO | 6.1 | 2.5 | 4 | Active | Active | Active | Active |
